The values that follow come from ChEMBL document CHEMBL1201862, “PubChem BioAssay data set” (2004).

The structures appear in SMILES notation.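 Assay format: 96-well plates, 48-hour exposure. GI50 is the concentration that inhibits growth by half.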 The source made the active and inactive calls. Cut-off read from the data, not from the text of the source: active = GI50 up to about 1.1 µM and inactive = higher.

Common to all, as to experiment: NCI anticancer screen, dose series, 48 h
The subject of experiment [1] is COLO 205.
In experiment [2] the test system is DU-145.
Experiment [3] concerns HCT-116.
Experiment [4] deals with HL-60.
Experiment [5] deals with HOP-62.
Experiment [6] concerns K562.
In experiment [7] the test system is KM12.
Experiment [8] concerns MDA-MB-231.
For experiment [9], the system named is OVCAR-4.
For experiment [10], the system named is RXF 393.
In experiment [11] the test system is SF-539.
For experiment [12], the system named is SK-MEL-2.
In experiment [13] the test system is SK-MEL-5.
For experiment [14], the system named is SK-OV-3.
Experiment [15] concerns SN12C.
The test system of experiment [16] is SNB-19.
For experiment [17], the system named is T47D.
The subject of experiment [18] is U-251.
For experiment [19], the system named is UACC-257.

`COc1ccc(C[C@@H]2OC3(C=CC(=O)C=C3)O[C@H]2Cc2ccc(OC)cc2)cc1`: the GI50 in experiment [1] was 1.43 µM (inactive); in [2] it was 1.48 µM (inactive); in [3], 0.133 µM (active); in [4], 1.52 µM (inactive); in experiment [5], 1.59 µM (inactive); in [6] it was 0.61 µM (active). Besides, the GI50 in experiment [7] is 1.91 µM (inactive); in experiment [8] it was 1.39 µM (inactive); in experiment [9], 0.957 µM (active); in [10], 0.277 µM (active); in [11] it was 1.14 µM (inactive); in experiment [12], 1.38 µM (inactive). Also, the GI50 in experiment [13] was 1.52 µM (inactive); in [14] it was 6.15 µM (inactive); in [15], 1.05 µM (active); in experiment [16] it was 1.82 µM (inactive); in experiment [17], 0.291 µM (active); in experiment [18] it was 1.28 µM (inactive). In experiment [19], the GI50 was 1.46 µM (inactive).

In the case of `CCOC(=O)c1ccc(/N=C/C=C(\Nc2ccc(C(=O)OCC)cc2)c2ccc3ccccc3c2)cc1`, the GI50 in [1] is 16.2 µM (inactive); in experiment [2], 37.3 µM (inactive); in [3] it was 31.4 µM (inactive); in experiment [4], 25.4 µM (inactive); in experiment [5] it was 30.8 µM (inactive); in experiment [6] it was 13.3 µM (inactive). The GI50 in experiment [7] was 17.2 µM (inactive); in [8], 25.1 µM (inactive); in [9] it was 26.4 µM (inactive); in experiment [10] it was 21.1 µM (inactive); in [11], 20.2 µM (inactive); in experiment [12], 23.5 µM (inactive). Moreover, the GI50 is 18.3 µM (inactive) in experiment [13]; 30.2 µM (inactive) in experiment [14]; 26.7 µM (inactive) in experiment [15]; 36.2 µM (inactive) in experiment [16]; 13.9 µM (inactive) in [17]; 32.8 µM (inactive) in [18]. For the same compound, the GI50 in [19] was 31 µM (inactive).

As to `COc1ccc(CNc2nc(NCc3ccc(OC)cc3)nc(N3CCOCC3)n2)cc1`, the GI50 in experiment [1] is 3.91 µM (inactive); in experiment [2], 15.1 µM (inactive); in experiment [3] it was 4.49 µM (inactive); in [4], 2.74 µM (inactive); in [5] it was 7.11 µM (inactive); in experiment [6], 4.55 µM (inactive). For the same compound, the GI50 was 2.34 µM (inactive) in experiment [7]; 6.12 µM (inactive) in experiment [8]; 15.5 µM (inactive) in experiment [9]; > 100 µM (inactive) in [10]; 4.27 µM (inactive) in experiment [11]; > 100 µM (inactive) in experiment [12]. The GI50 in [13] was 5.41 µM (inactive); in experiment [14], 8.83 µM (inactive); in experiment [15], 5.37 µM (inactive); in experiment [16] it was 6.31 µM (inactive); in experiment [17] it was 9.84 µM (inactive); in experiment [18], 4.43 µM (inactive). Besides, the GI50 in [19] is 5.22 µM (inactive).

Regarding `CCN(CC)CCCNc1nncc2c(C)c3[nH]c4ccc(OC)cc4c3cc12`, the GI50 is 1.03 µM (active) in [1]; 0.622 µM (active) in [2]; 0.277 µM (active) in experiment [3]; 0.91 µM (active) in [4]; 0.525 µM (active) in [5]; 0.14 µM (active) in experiment [6]. Besides, the GI50 was 0.592 µM (active) in experiment [7]; 0.716 µM (active) in [8]; 0.618 µM (active) in experiment [9]; 1.32 µM (inactive) in experiment [10]; 0.268 µM (active) in [11]; 1.02 µM (active) in experiment [12]. The GI50 in experiment [13] is 0.935 µM (active); in [14] it was 1.17 µM (inactive); in experiment [15], 0.271 µM (active); in experiment [16], 0.318 µM (active); in [17], 0.286 µM (active); in experiment [18], 0.304 µM (active). In addition, in experiment [19], the GI50 was 2.35 µM (inactive).

Take `COc1ccc([N+](=O)[O-])c2c(NCCCN(C)C)c3ccccc3nc12`: the GI50 in experiment [1] is 0.0953 µM (active); in experiment [2] it was 0.126 µM (active); in experiment [3] it was 0.112 µM (active); in [4] it was 0.662 µM (active); in experiment [5], 0.0998 µM (active); in experiment [6], 0.133 µM (active). Further, the GI50 in [7] is 0.0991 µM (active); in experiment [8] it was 0.466 µM (active); in [9], 0.0354 µM (active); in experiment [10], 0.0838 µM (active); in experiment [11], 0.308 µM (active); in experiment [12], 0.131 µM (active). In addition, the GI50 in experiment [13] was 0.106 µM (active); in experiment [14], 0.33 µM (active); in experiment [15], 0.26 µM (active); in experiment [16] it was 0.202 µM (active); in [17], 0.2 µM (active); in experiment [18], 0.152 µM (active). Besides, the GI50 in experiment [19] is 0.23 µM (active).

Turning to `N=c1[nH]cnc2c1nnn2C1C=CC(COS(N)(=O)=O)C1` (stereo not given), the GI50 is 3.59 µM (inactive) in experiment [1]; 7.08 µM (inactive) in experiment [2]; 5.24 µM (inactive) in [3]; 3.42 µM (inactive) in [4]; 9.91 µM (inactive) in [5]; 5.47 µM (inactive) in experiment [6]. The GI50 was 9.68 µM (inactive) in experiment [7]; 8.07 µM (inactive) in [8]; 6.84 µM (inactive) in experiment [9]; 8.45 µM (inactive) in experiment [10]; 1.85 µM (inactive) in experiment [11]; 3.01 µM (inactive) in experiment [12]. In addition, the GI50 was 3.13 µM (inactive) in experiment [13]; 24.6 µM (inactive) in experiment [14]; 15.9 µM (inactive) in experiment [15]; 4.56 µM (inactive) in experiment [16]; 3.94 µM (inactive) in experiment [17]; 4.15 µM (inactive) in experiment [18]. Moreover, the GI50 in experiment [19] is 14.7 µM (inactive).

For `O=C1CCc2cc3c(cc21)CC1(Cc2ccccc2C1)C3`, the GI50 in experiment [1] was 3.79 µM (inactive); in experiment [2], 20.8 µM (inactive); in experiment [3], 4.08 µM (inactive); in [4] it was 2.43 µM (inactive); in [5] it was 9.73 µM (inactive); in experiment [6], 2.09 µM (inactive). Besides, the GI50 was > 22.4 µM (inactive) in [7]; 12 µM (inactive) in experiment [8]; 50.1 µM (inactive) in experiment [9]; 33 µM (inactive) in experiment [10]; 9.12 µM (inactive) in experiment [11]; 2.11 µM (inactive) in [12]. For the same compound, the GI50 in experiment [13] is 5.77 µM (inactive); in experiment [14] it was 14 µM (inactive); in experiment [15], 19.9 µM (inactive); in [16], 27.2 µM (inactive); in experiment [17] it was 20.2 µM (inactive); in [18], 7.96 µM (inactive). In addition, in experiment [19], the GI50 is 19.6 µM (inactive).

Take `CC(=O)OCC1=C2C(OC(=O)C(C)C)CC3(COC(C)=O)OC3/C=C\C3(C)OC3C2OC1=O` (stereo not given): the GI50 in experiment [1] was > 100 µM (inactive); in experiment [2] it was > 100 µM (inactive); in [3], > 100 µM (inactive); in experiment [4], 34.4 µM (inactive); in experiment [5], > 100 µM (inactive); in experiment [6] it was > 100 µM (inactive). Also, the GI50 in experiment [7], in experiment [8], in experiment [9], in experiment [10], in experiment [11] and in experiment [12] was > 100 µM (inactive) each time. The GI50 in experiment [13], in experiment [14], in [15], in [16], in experiment [17] and in experiment [18] was > 100 µM (inactive) each time. The GI50 in experiment [19] is > 100 µM (inactive).

Regarding `Oc1nc(S)nc(SCc2c(Cl)c(Cl)c(Cl)c(Cl)c2Cl)n1`, the GI50 in experiment [1] is 18.2 µM (inactive); in experiment [2], 45.9 µM (inactive); in [3], 39.8 µM (inactive); in [4], 20.1 µM (inactive); in experiment [5], 38.7 µM (inactive); in experiment [6], 15.3 µM (inactive). Further, the GI50 in experiment [7] is 89.9 µM (inactive); in [8], > 100 µM (inactive); in experiment [9], 21.9 µM (inactive); in [10], 16.9 µM (inactive); in [11] it was 46.2 µM (inactive); in experiment [12], 52.5 µM (inactive). In addition, the GI50 in [13] was > 84.1 µM (inactive); in [14], > 96.4 µM (inactive); in experiment [15] it was 49.5 µM (inactive); in [16], > 100 µM (inactive); in [17] it was 27.9 µM (inactive); in experiment [18], > 100 µM (inactive). Besides, the GI50 in [19] was > 88.3 µM (inactive).

As for `Oc1cc(-c2ccccc2)nc2ncccc12`, the GI50 is 0.0855 µM (active) in experiment [1]; 0.298 µM (active) in experiment [2]; 0.0719 µM (active) in experiment [3]; 0.0471 µM (active) in experiment [4]; 1.15 µM (inactive) in experiment [5]; 0.0336 µM (active) in experiment [6]. Further, the GI50 is 0.0296 µM (active) in experiment [7]; 0.418 µM (active) in experiment [8]; 15 µM (inactive) in [9]; 0.106 µM (active) in [10]; 0.109 µM (active) in experiment [11]; 0.0303 µM (active) in experiment [12]. In addition, the GI50 in experiment [13] was 0.0778 µM (active); in experiment [14], 0.126 µM (active); in [15] it was 0.268 µM (active); in [16] it was 0.222 µM (active); in [17] it was > 100 µM (inactive); in [18] it was 0.0927 µM (active). Moreover, the GI50 in [19] was 0.203 µM (active).
